Test results from ChEMBL document CHEMBL3400035, “Synthesis, in vitro anticancer and antimycobacterial evaluation of new 5-(2,5-dimethoxyphenyl)-1,3,4-thiadiazole-2-amino derivatives” (Bioorg Med Chem Lett, 2015).
The source made the active and inactive calls. No cut-off for these calls is given here.

Key:
[1] = test system: Mycolicibacterium smegmatis; test: Anti-tubercular activity against Mycobacterium smegmatis str. MC2 155; assay type: functional, organism-based
[2] = test system: MDA-MB-231; test: Cytotoxicity against human MDA-MB-231 cells assessed as growth inhibition at 25 uM by MTT assay; assay type: functional; settings: read-out: GI
[3] = test system: Mycolicibacterium smegmatis; test: Anti-tubercular activity against Mycobacterium smegmatis str. MC2 155 relative to untreated control; assay type: functional
[4] = test system: HT-29; test: Cytotoxicity against human HT-29 cells assessed as growth inhibition at 25 uM by MTT assay; assay type: functional; settings: read-out: GI
[5] = Cytotoxicity against HEK293 cells assessed as cell growth at 25 uM by MTT assay; assay type: cell-based; settings: human, read-out: Activity
[6] = test system: Mycolicibacterium smegmatis; test: Anti-tubercular activity against Mycobacterium smegmatis str. MC2 155 at 30 uM; assay type: functional, organism-based
[7] = test system: MDA-MB-231; test: Cytotoxicity against human MDA-MB-231 cells assessed as growth inhibition by MTT assay; assay type: functional, cell-based

| Structure (SMILES) | IC50 [1] [µM] | inhibition of growth at 25 µM [2] [%] | inhibition (INH) [3] | inhibition of growth at 25 µM [4] [%] | viability at 25 µM [5] [%] | inhibition [6] | IC50 [7] [µM] |
| --- | --- | --- | --- | --- | --- | --- | --- |
| COc1ccc(OC)c(-c2nnc(NCc3ccc(Br)cc3)s2)c1 | > 100 | 51.5 | >=30% | 45.4 | < 74.5 | – | – |
| CO[C@H]1/C=C/O[C@@]2(C)Oc3c(C)c(O)c4c(O)c(c(/C=N/N5CCN(C)CC5)c(O)c4c3C2=O)NC(=O)/C(C)=C\C=C\[C@H](C)[C@H](O)[C@@H](C)[C@@H](O)[C@@H](C)[C@H](OC(C)=O)[C@@H]1C [RIFAMPIN] | 1.87 | – | – | – | – | – | – |
| NNC(=O)c1ccncc1 [ISONIAZID] | 16 | – | – | – | – | – | – |
| COc1ccc(OC)c(-c2nnc(-c3ccc(C)c([N+](=O)[O-])c3)s2)c1 | – | 53.3 | – | 51.9 | > 74.5 | inactive | – |
| COc1ccc(OC)c(-c2nnc(N)s2)c1 | > 100 | 32 | >=30% | 20.6 | > 74.5 | – | – |
| COc1ccc(OC)c(-c2nnc(N3CCCC3)s2)c1 | – | 38.1 | – | 18.8 | > 74.5 | inactive | – |
| COc1ccc(OC)c(-c2nnc(N3CCC(=O)CC3)s2)c1 | > 100 | 32.5 | >=30% | 33.7 | > 74.5 | – | – |
| COc1ccc(OC)c(-c2nnc(N3CCNCC3)s2)c1 | 88.1 | 41.6 | >=30% | 25.5 | > 74.5 | – | – |
| COc1ccc(OC)c(-c2nnc(N3CCC(Cc4ccccc4)CC3)s2)c1 | 65.7 | 33.6 | >=30% | 51 | > 74.5 | – | – |
| COc1ccc(CN2CCN(c3nnc(-c4cc(OC)ccc4OC)s3)CC2)cc1 | 80.3 | 36.5 | >=30% | 39.8 | > 74.5 | – | – |
| COc1ccc(OC)c(-c2nnc(NCc3ccc(Cl)cc3)s2)c1 | > 100 | 53.8 | >=30% | 68.7 | < 74.5 | – | – |
| COc1cccc2c1C(=O)c1c(O)c3c(c(O)c1C2=O)C[C@@](O)(C(=O)CO)C[C@@H]3O[C@H]1C[C@H](N)[C@H](O)[C@H](C)O1 [DOXORUBICIN] | – | – | – | – | – | – | 1 |
| COc1ccc(OC)c(-c2nnc(N3CCCC(O)C3)s2)c1 (stereo not drawn) | > 100 | 39.7 | >=30% | 31.1 | > 74.5 | – | – |
| COc1ccc(OC)c(-c2nnc(NCc3cccc(C(F)(F)F)c3)s2)c1 | 40.9 | 51.2 | >=30% | 52.6 | < 74.5 | – | – |
| COc1ccc(OC)c(CNc2nnc(-c3cc(OC)ccc3OC)s2)c1 | > 100 | 30.2 | >=30% | 47.2 | > 74.5 | – | – |
| COc1ccc(OC)c(-c2nnc(N3CCOCC3)s2)c1 | > 100 | 31.2 | >=30% | 18.2 | > 74.5 | – | – |
| COc1ccc(OC)c(-c2nnc(Cl)s2)c1 | 75.6 | 33.7 | >=30% | 8.81 | > 74.5 | – | – |
| COc1ccc(OC)c(-c2nnc(N3CCCCC3)s2)c1 | – | 32.8 | – | 3.67 | > 74.5 | inactive | – |
| COc1ccc(OC)c(-c2nnc(-n3ccnc3)s2)c1 | – | 33.5 | – | 21 | > 74.5 | inactive | – |
| COc1ccc(OC)c(-c2nnc(NCc3ccccc3)s2)c1 | 75.6 | 63 | >=30% | 68.3 | < 74.5 | – | – |
| COc1ccc(OC)c(-c2nnc(-n3ccc4cc(OC)ccc43)s2)c1 | – | 24.7 | – | 5.65 | > 74.5 | inactive | – |
| CCN1CCN(c2nnc(-c3cc(OC)ccc3OC)s2)CC1 | > 100 | 34.6 | >=30% | 9.91 | > 74.5 | – | – |
